pIC50: −log10 of the molar value.
Test system: 616215-338-R-J1-PDC complex spheroid viability
Experiment: Anticancer human tumor 616215-338-R-J1-PDC patient-derived colon adenocarcinoma cell line growth inhibition [POLQ]
Conditions: for pIC50: curve of first compound; for viability, T/C: stronger effect = lower value; active = viability on the fitted dose curve at most 10% of control; inactive = the rest
Procedure, shortened: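 Complex spheroid viability model combining PDC tumour cells with endothelial (HUVEC) and MSC stromal cells. Novobiocin, ART-558 or RP6685 were tested singly and in combination with standard and investigational anticancer drugs. Each was titrated in half-log steps from near clinical Cmax, or from 10 microM where Cmax was unknown.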

[1] = second compound 0.0316 µM, first compound 0.00316 µM
[2] = second compound 0.0316 µM, first compound 0.01 µM
[3] = second compound 0.0316 µM, first compound 0.0316 µM
[4] = second compound 0.0316 µM, first compound 0.1 µM
[5] = second compound 0.0316 µM, first compound 0.316 µM
[6] = second compound 0.0316 µM, first compound 1 µM
[7] = second compound 0.1 µM, first compound 0.00316 µM
[8] = second compound 0.1 µM, first compound 0.01 µM
[9] = second compound 0.1 µM, first compound 0.0316 µM
[10] = second compound 0.1 µM, first compound 0.1 µM
[11] = second compound 0.1 µM, first compound 0.316 µM
[12] = second compound 0.1 µM, first compound 1 µM
[13] = second compound 0.316 µM, first compound 0.00316 µM
[14] = second compound 0.316 µM, first compound 0.01 µM
[15] = second compound 0.316 µM, first compound 0.0316 µM
[16] = second compound 0.316 µM, first compound 0.1 µM
[17] = second compound 0.316 µM, first compound 0.316 µM
[18] = second compound 0.316 µM, first compound 1 µM
[19] = second compound 1 µM, first compound 0.00316 µM
[20] = second compound 1 µM, first compound 0.01 µM
[21] = second compound 1 µM, first compound 0.0316 µM
[22] = second compound 1 µM, first compound 0.1 µM
[23] = second compound 1 µM, first compound 0.316 µM
[24] = second compound 1 µM, first compound 1 µM
[25] = second compound 3.16 µM, first compound 0.00316 µM
[26] = second compound 3.16 µM, first compound 0.01 µM
[27] = second compound 3.16 µM, first compound 0.0316 µM
[28] = second compound 3.16 µM, first compound 0.1 µM
[29] = second compound 3.16 µM, first compound 0.316 µM
[30] = second compound 3.16 µM, first compound 1 µM
[31] = second compound 10 µM, first compound 0.00316 µM
[32] = second compound 10 µM, first compound 0.01 µM
[33] = second compound 10 µM, first compound 0.0316 µM
[34] = second compound 10 µM, first compound 0.1 µM
[35] = second compound 10 µM, first compound 0.316 µM
[36] = second compound 10 µM, first compound 1 µM
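Note: spheroids exposed to compounds for one week before readout.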
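Throughout, for viability, T/C: percent viability relative to DMSO vehicle wells taken as 100%.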

COc1cccc(OCCCN)c1-c1cc(Nc2cnc(C#N)cn2)n[nH]1 + Cc1cccc(N(C)C(=O)C2C(O)CCN2c2nc(C)cc(C(F)(F)F)c2C#N)c1
7.25: pIC50 (second compound 3.16 µM)
7.43: pIC50 (second compound 10 µM)
inactive: viability, T/C [1] 94.8% | viability, T/C [2] 89.4% | viability, T/C [3] 73.1% | viability, T/C [4] 47.9% | viability, T/C [5] 38.9% | viability, T/C [6] 35.3% | viability, T/C [7] 107% | viability, T/C [8] 97.8% | viability, T/C [9] 57.3% | viability, T/C [10] 47.8% | viability, T/C [11] 34.3% | viability, T/C [12] 29.9% | viability, T/C [13] 99% | viability, T/C [14] 86.1% | viability, T/C [15] 61.7% | viability, T/C [16] 38.3% | viability, T/C [17] 37% | viability, T/C [18] 29.3% | viability, T/C [19] 108% | viability, T/C [20] 89.9% | viability, T/C [21] 56.1% | viability, T/C [22] 41.3% | viability, T/C [23] 35.8% | viability, T/C [24] 26.7% | viability, T/C [25] 86.8% | viability, T/C [26] 82.9% | viability, T/C [27] 60.4% | viability, T/C [28] 38.4% | viability, T/C [29] 43.8% | viability, T/C [30] 29.1% | viability, T/C [31] 104% | viability, T/C [32] 81.3% | viability, T/C [33] 47.5% | viability, T/C [34] 38.3% | viability, T/C [35] 34.7% | viability, T/C [36] 21.2%
7.23: pIC50 (second compound 0.316 µM)
7.27: pIC50 (second compound 1 µM)
7.03: pIC50 (second compound 0.0316 µM)
7.21: pIC50 (second compound 0.1 µM)

CC[C@@]1(O)C(=O)OCc2c1cc1n(c2=O)Cc2cc3c(CN(C)C)c(O)ccc3nc2-1 + Nc1ccc(C#CCN(C(=O)Cc2ncc(C(F)(F)F)cc2C(F)(F)F)c2ccc(F)cc2)nn1
7.14: pIC50 (second compound 0.1 µM)
7.23: pIC50 (second compound 3.16 µM)
inactive: viability, T/C (second compound 0.0316 µM, first compound 0.000316 µM) 112% | viability, T/C (second compound 0.0316 µM, first compound 0.001 µM) 105% | viability, T/C [1] 100% | viability, T/C [2] 101% | viability, T/C [3] 89.4% | viability, T/C [4] 32.3% | viability, T/C (second compound 0.1 µM, first compound 0.000316 µM) 103% | viability, T/C (second compound 0.1 µM, first compound 0.001 µM) 103% | viability, T/C [7] 98.1% | viability, T/C [8] 102% | viability, T/C [9] 83.4% | viability, T/C [10] 37.5% | viability, T/C (second compound 0.316 µM, first compound 0.000316 µM) 111% | viability, T/C (second compound 0.316 µM, first compound 0.001 µM) 119% | viability, T/C [13] 98.6% | viability, T/C [14] 99.3% | viability, T/C [15] 79.8% | viability, T/C [16] 33.6% | viability, T/C (second compound 1 µM, first compound 0.000316 µM) 108% | viability, T/C (second compound 1 µM, first compound 0.001 µM) 96.6% | viability, T/C [19] 107% | viability, T/C [20] 104% | viability, T/C [21] 66.1% | viability, T/C [22] 41.1% | viability, T/C (second compound 3.16 µM, first compound 0.000316 µM) 97.9% | viability, T/C (second compound 3.16 µM, first compound 0.001 µM) 108% | viability, T/C [25] 98.2% | viability, T/C [26] 98.3% | viability, T/C [27] 75.3% | viability, T/C [28] 29.1% | viability, T/C (second compound 10 µM, first compound 0.000316 µM) 85.5% | viability, T/C (second compound 10 µM, first compound 0.001 µM) 90.1% | viability, T/C [31] 96.4% | viability, T/C [32] 94.2% | viability, T/C [33] 55.8% | viability, T/C [34] 38%
7.34: pIC50 (second compound 10 µM)
7.16: pIC50 (second compound 0.0316 µM)
7.18: pIC50 (second compound 0.316 µM) | pIC50 (second compound 1 µM)

CCc1cc2c(N3CCc4c(cc(Cn5ccnc5)cc4-c4cn(C)nc4C(F)(F)F)C3=O)cc(C)nc2c(OC)n1 + Cc1cccc(N(C)C(=O)C2C(O)CCN2c2nc(C)cc(C(F)(F)F)c2C#N)c1
5.63: pIC50 (second compound 0.0316 µM)
< 5.00: pIC50 (second compound 3.16 µM)
5.55: pIC50 (second compound 1 µM)
5.65: pIC50 (second compound 0.1 µM)
5.56: pIC50 (second compound 10 µM)
5.37: pIC50 (second compound 0.316 µM)
inactive: viability, T/C [3] 107% | viability, T/C [4] 120% | viability, T/C [5] 83% | viability, T/C [6] 60.6% | viability, T/C (second compound 0.0316 µM, first compound 3.16 µM) 46.4% | viability, T/C (second compound 0.0316 µM, first compound 10 µM) 45.7% | viability, T/C [9] 108% | viability, T/C [10] 104% | viability, T/C [11] 74.8% | viability, T/C [12] 57.4% | viability, T/C (second compound 0.1 µM, first compound 3.16 µM) 49.6% | viability, T/C (second compound 0.1 µM, first compound 10 µM) 43.2% | viability, T/C [15] 99.8% | viability, T/C [16] 103% | viability, T/C [17] 81% | viability, T/C [18] 70.8% | viability, T/C (second compound 0.316 µM, first compound 3.16 µM) 45.7% | viability, T/C (second compound 0.316 µM, first compound 10 µM) 49.1% | viability, T/C [21] 105% | viability, T/C [22] 102% | viability, T/C [23] 85% | viability, T/C [24] 66.1% | viability, T/C (second compound 1 µM, first compound 3.16 µM) 48% | viability, T/C (second compound 1 µM, first compound 10 µM) 40% | viability, T/C [27] 106% | viability, T/C [28] 102% | viability, T/C [29] 90.2% | viability, T/C [30] 58% | viability, T/C (second compound 3.16 µM, first compound 3.16 µM) 54.6% | viability, T/C (second compound 3.16 µM, first compound 10 µM) 50.8% | viability, T/C [33] 106% | viability, T/C [34] 92.3% | viability, T/C [35] 81.7% | viability, T/C [36] 61.1% | viability, T/C (second compound 10 µM, first compound 3.16 µM) 48% | viability, T/C (second compound 10 µM, first compound 10 µM) 40.4%

Source: PubChem BioAssay AID1963843 (Molecular Pharmacology Branch, DTP, NCI, 2024)
